From article PMC5316400, “Validation of precision-cut liver slices to study drug-induced cholestasis: a transcriptomics approach” (Archives of Toxicology, 2016)

Experiments:
[1] = tested on: human precision-cut liver slices (PCLS); assay: Transcriptomics of human PCLS: differentially regulated genes; format: cell-based; conditions: fold change of 1.5 and adjusted p value 0.05, 24 h, 60 μM bile acid mix
Procedure: (§1) Precision-cut liver slices of 5 mm diameter and 250 μm thickness were prepared (de Graaf et al. [2010]). At this thickness, full penetration of substrates has been shown. PCLS were made using the Krumdieck tissue slicer (Alabama R&D, Munford, AL, USA) in ice-cold Krebs buffer at pH 7.42, enriched with glucose to a final concentration of 25 mM, saturated with carbogen (95 % O2/5 % CO2). Immediately after the slices were made, they were placed in ice-cold University of Wisconsin organ preservation solution (UW, Dupont Critical Care, Waukegan, IL, USA) and stored on ice until the beginning of the experiment. Slices were pre-incubated individually in 12-well plates in 1.3 ml of Williams Medium E with glutamax-1 (Gibco, Invitrogen, Paisley, Scotland) supplemented with 25 mM D-glucose and 50 μg/ml gentamycin (Gibco, Invitrogen, Paisley, Scotland). In the incubator (Sanyo CO2/O2 Incubator, PANASONIC, Secaucus, NJ, USA), the plates were gently shaken (90 times/min) for 1 h under 80 % O2 and 5 % CO2 atmosphere at 37 °C. This pre-incubation allows the slices to restore their ATP levels. […] The plates were incubated under the same conditions for 24 h. All incubation conditions were carried out in triplicate. Each experiment was performed in slices of 6 different human livers (Table 1). Slices were harvested for ATP assay in 100 mM Tris buffer with 2 mM EDTA and for RNA isolation in RNAlater. The bile acid mix was added to the medium in order to create an environment similar to the physiological concentration in the portal vein. The composition of the serum bile acids was according to Scherer et al. ([2009]). Pilot experiments were performed to find out the non-toxic concentration of the bile acid mix.
(§2) Maxwell® 16 LEV Total RNA purification kit (Promega, The Netherlands) with Maxwell® 16 LEV Instrument was used to isolate RNA from the samples. Immediately after isolation, the RNA quality was assessed by measuring the 260/280 and 260/230 ratios, and the concentration was measured with the ND-1000 spectrophotometer (Fisher Scientific, Landsmeer, The Netherlands). The quality (RIN value) and quantity of the RNA were determined by high-throughput Caliper GX LabChip RNA kit (Caliper).
(§3) Ambion Illumina Total Prep RNA kit was used to transcribe 300 ng RNA to cRNA according to the manufacturer’s instructions. A total of 750 ng of cRNA was hybridized at 58 °C for 16 h to the Illumina HumanHT-12 v4 Expression BeadChips. BeadChips were scanned using Iscan software, and IDAT files were generated (Illumina, San Diego, CA, USA).
(§4) GenomeStudio software (Illumina) was used to read the IDAT files and generate raw expression values. The ArrayAnalysis web service (www.arrayanalysis.org/) was used for further preprocessing the data, which uses lumi R package (Eijssen et al. [2013]). Raw gene expression data were background-corrected (bgAdjust), variance-stabilized (VST) and normalized by quantile normalization. After normalization, the data were corrected for batch differences owing to RNA isolation and hybridization using the ComBat method implemented in the swamp package in R (Lauss et al. [2013]). Differentially expressed genes in slices exposed to the cholestatic drugs in the presence of bile acids versus the slices exposed to vehicle (DMSO) in the presence of bile acids were identified using the unpaired moderated t test in the limma package (Ritchie et al. [2015]). Genes that are regulated with a criterion of fold change of 1.5 (≤ or ≥1.5), and FDR-corrected p value ≤0.05 (Benjamini and Hochberg method) were chosen for pathway analysis. To compare our data with the scarcely available human in vivo data, human in vivo late-stage cholestasis data were downloaded from the Gene Expression Omnibus database (GSE46960).

[2] = adult patients, therapeutic dose, systemic blood; no reference given; cited from earlier work
[3] = tested on: Genes involved in hepatic cholestasis pathway; assay: Microarray gene expression in human PCLS exposed to cholestatic drugs: hepatic cholestasis pathway genes; conditions: 100 μM; 24 h; 60 μM bile acid mix
Procedure: as §1, §2, §3, §4

[4] = tested on: Genes involved in the FXR pathway; assay: Microarray gene expression in human PCLS exposed to cholestatic drugs: FXR pathway genes; conditions: 100 μM; 24 h; 60 μM bile acid mix
Procedure: as §1, §2, §3, §4

[5] = tested on: Genes involved in unfolded protein response (UPR); assay: Microarray gene expression in human PCLS exposed to cholestatic drugs: unfolded protein response genes; format: cell-based; conditions: 100 μM; 24 h; 60 μM bile acid mix
Procedure: as §1, §2, §3, §4

[6] = C max in systemic blood of adult patients after a therapeutic dose; conditions: highest toxic concentration tested in human PCLS vs C max in adult patients

With `C#C[C@]1(O)CC[C@H]2[C@@H]3CCc4cc(O)ccc4[C@H]3CC[C@@]21C` [EE, ethinyl estradiol] the “Number of regulated genes” value ([1]; 25 μM) was 0, the “Number of regulated genes” value ([1]; 50 μM) was 5 and the “Number of regulated genes” value ([1]; 75 μM) was 63. The Cmax [2] was 0.0082 µM.

For `C[C@]12CCC(=O)C=C1CC[C@@H]1[C@@H]2CC[C@@]2(C)[C@H]1CC[C@]2(C)O` [MT, methyl testosterone], the ABCB4 fold change [3] was −3.6, the ABCB11 fold change [3] was −1.2 and the ABCC3 fold change [3] was −1.8. It also gave an ABCG5 fold change [3] of −1.7, an ABCG8 fold change [3] of −1.4 and a CYP8B1 fold change [3] of 1.1. The CYP27A1 fold change [3] was −1.5, the GCGR fold change [3] was −1.1 and the IL1B fold change [3] was −1.2. For the same molecule, the IL1RL1 fold change [3] was 3.5, the IL1RN fold change [3] was 1.9 and the IRAK2 fold change [3] was 1.0. It also gave a JUN fold change [3] of 1.6, an NR0B2 fold change [3] of 1.0 and an NR1H3 fold change [3] of −1.3. For the same molecule, the NR1H4 fold change [3] was −1.1, the PPRC1 fold change [3] was 1.1 and the RXRA fold change [3] was −1.7. The SLC22A7 fold change [3] was −1.1, the TNFRSF1B fold change [3] was 1.1 and the ABCB4 fold change [4] was −3.6. The ABCB11 fold change [4] was −1.7, the ABCG5 fold change [4] was −1.6 and the ABCG8 fold change [4] was −1.4. The APOC2 fold change [4] was 1.0, the APOC4 fold change [4] was −1.4 and the APOF fold change [4] was 1.1. For the same molecule, the BAAT fold change [4] was −1.4, the C3 fold change [4] was −2.0 and the CYP8B1 fold change [4] was 1.1. It also gave a CYP27A1 fold change [4] of −1.5, an FASN fold change [4] of 1.2 and an FBP1 fold change [4] of 1.2. The FETUB fold change [4] was −1.3, the FGA fold change [4] was 1.9 and the ITIH4 fold change [4] was −1.4. For the same molecule, the KNG1 fold change [4] was −1.7, the “NR0B2 (SHP) fold change” value [4] was 1.3 and the “NR1H3 (LXR) fold change” value [4] was −1.0. The “NR1H4 (FXR) fold change” value [4] was −1.2, the PON1 fold change [4] was 1.1 and the RXRA fold change [4] was −1.7. For the same molecule, the SCARB1 fold change [4] was −1.6, the SDC1 fold change [4] was −1.8 and the SERPINF2 fold change [4] was −1.2. It also gave an SLC22A7 fold change [4] of −1.5, an SLC51B fold change [4] of −2.8 and an SULT2A1 fold change [4] of 1.7. The ATF4 fold change [5] was 1.2, the “DDIT3 (CHOP) fold change” value [5] was 2.9 and the DNAJB9 fold change [5] was 1.3. The ERN1 fold change [5] was 3.0, the HSPA9 fold change [5] was 1.3 and the HSPH1 fold change [5] was 1.7. The INSIG1 fold change [5] was −1.5, the NFE2L2 fold change [5] was −1.1 and the SYVN1 fold change [5] was 1.1. For the same molecule, the “Number of regulated genes” value ([1]; 25 μM) was 11, the “Number of regulated genes” value ([1]; 50 μM) was 38 and the “Number of regulated genes” value ([1]; 100 μM) was 233. The Cmax [2] was 0.13 µM and the “toxic concentration used in PCLS study relative to C max” value [6] was ~ 770 × C max.
